# According to patent US7998952B2, “Thiolactams and uses thereof” (Millennium Pharmaceuticals, Inc., priority 2008, dated 2011):
# Target: T1, recombinant human PLK1[2-369]T210D (Homo sapiens, UniProt P53350, T210D)
# T1 construct: recombinant human PLK1[2-369]T210D; Smt (SUMO) fusion partner (N, cleaved yes); host or cells: E. coli
# Assay: PLK1 DELFIA Kinase Assay
# Format: biochemical
# Settings: 50 μM ATP, 2 μM peptide substrate, 0.3 nM enzyme, 90 minutes at room temperature
# Method: Recombinant human PLK1 was expressed in E. coli as an N-terminal Smt fusion protein using a proprietary vector (pSGX4) by Structural Genomics (SGX). The fusion partner was removed through cleavage with Ulp1 after an initial purification using a Ni2+ affinity column.
# PLK1 DELFIA® Kinase Assay
# The enzymatic reaction mixture, with or without PLK inhibitors, was incubated 90 minutes at room temperature before termination with 50 μL of STOP buffer containing 1% BSA, 0.05% Tween20, 100 mM EDTA. 50 μL of the stopped enzyme reaction mixture was transferred to a Neutravidin-coated 384-well plate (Pierce) and incubated at room temperature for 60 minutes. […] The wells were washed and then the bound europium was liberated using 50 μL of Enhancement Solution (Perkin Elmer). Quantification of europium was done using a Pherastar (BMG Labtech)
# T1 sequence (P53350 2-369 T210D): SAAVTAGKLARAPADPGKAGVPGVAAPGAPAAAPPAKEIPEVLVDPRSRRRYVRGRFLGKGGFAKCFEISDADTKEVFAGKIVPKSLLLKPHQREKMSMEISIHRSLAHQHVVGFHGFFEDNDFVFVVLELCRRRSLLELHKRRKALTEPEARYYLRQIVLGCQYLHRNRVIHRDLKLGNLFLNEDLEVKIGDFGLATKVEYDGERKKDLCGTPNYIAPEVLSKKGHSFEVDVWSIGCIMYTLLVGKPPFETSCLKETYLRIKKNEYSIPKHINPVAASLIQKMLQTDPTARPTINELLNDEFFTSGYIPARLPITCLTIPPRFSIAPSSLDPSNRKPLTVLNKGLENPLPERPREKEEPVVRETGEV
row,SMILES,IC50
1,"CN(C)CCCc1cncc(Nc2ncc3c(n2)-c2ccc(C(F)(F)F)cc2NC(=S)C3)c1 [Compound I-32, 2-({5-[3-(dimethylamino)propyl]pyridin-3-yl}amino)-9-(trifluoromethyl)-5,7-dihydro-6H-pyrimido[5,4-d][1]benzazepine-6-thione]",< 5 nM
2,"CN(C)CCCc1cc2c(cc1Cl)NC(=S)Cc1cnc(Nc3cccnc3)nc1-2 [Compound I-33, 9-chloro-10-[3-(dimethylamino)propyl]-2-(pyridin-3-ylamino)-5,7-dihydro-6H-pyrimido[5,4-d][1]benzazepine-6-thione]",5 to 25 nM
3,"Cc1ncc(CCN2CCCC(N(C)C)C2)cc1Nc1ncc2c(n1)-c1ccc(Cl)cc1NC(=S)C2 (stereo not shown) [Compound I-34, 9-chloro-2-[(5-{2-[3-(dimethylamino)piperidin-1-yl]ethyl}-2-methylpyridin-3-yl)amino]-5,7-dihydro-6H-pyrimido[5,4-d][1]benzazepine-6-thione]",< 5 nM
4,"Cc1nc(N(C)CCN(C)C)ccc1Nc1ncc2c(n1)-c1ccc(C(F)(F)F)cc1NC(=S)C2 [Compound I-35, 2-({6-[[2-(dimethylamino)ethyl](methyl)amino]-2-methylpyridin-3-yl}amino)-9-(trifluoromethyl)-5,7-dihydro-6H-pyrimido[5,4-d][1]benzazepine-6-thione]",5 to 25 nM
5,"CN(C)CCCc1cnc(C(F)(F)F)c(Nc2ncc3c(n2)-c2ccc(C(F)(F)F)cc2NC(=S)C3)c1 [Compound I-36, 2-{[5-[3-(dimethylamino)propyl]-2-(trifluoromethyl)pyridin-3-yl]amino}-9-(trifluoromethyl)-5,7-dihydro-6H-pyrimido[5,4-d][1]benzazepine-6-thione]",5 to 25 nM
6,"Cc1ccnc(C)c1Nc1ncc2c(n1)-c1ccc(Cl)cc1NC(=S)C2 [Compound I-37, 9-chloro-2-[(2,4-dimethylpyridin-3-yl)amino]-5,7-dihydro-6H-pyrimido[5,4-d][1]benzazepine-6-thione]",> 25 nM
7,"CCc1ncc(CCCN(C)C)cc1Nc1ncc2c(n1)-c1ccc(Cl)cc1NC(=S)C2 [Compound I-38, 9-chloro-2-({5-[3-(dimethylamino)propyl]-2-ethylpyridin-3-yl}amino)-5,7-dihydro-6H-pyrimido[5,4-d][1]benzazepine-6-thione]",< 5 nM
8,"Cc1ncc(CCCN(C)C)cc1Nc1ncc2c(n1)-c1ccc(C3CC3)cc1NC(=S)C2 [Compound I-39, 9-cyclopropyl-2-({5-[3-(dimethylamino)propyl]-2-methylpyridin-3-yl}amino)-5,7-dihydro-6H-pyrimido[5,4-d][1]benzazepine-6-thione]",< 5 nM
9,"Cc1nc(NCC2CCN(C)CC2)ccc1Nc1ncc2c(n1)-c1ccc(Cl)cc1NC(=S)C2 [Compound I-40, 9-chloro-2-[(2-methyl-6-{[(1-methylpiperidin-4-yl)methyl]amino}pyridin-3-yl)amino]-5,7-dihydro-6H-pyrimido[5,4-d][1]benzazepine-6-thione]",< 5 nM
10,"Cc1nc(N(C)CCCN(C)C)ccc1Nc1ncc2c(n1)-c1ccc(Cl)cc1NC(=S)C2 [Compound I-41, 9-chloro-2-({6-[[3-(dimethylamino)propyl](methyl)amino]-2-methylpyridin-3-yl}amino)-5,7-dihydro-6H-pyrimido[5,4-d][1]benzazepine-6-thione]",5 to 25 nM
11,"Cc1nc(C)c(Nc2ncc3c(n2)-c2ccc(Cl)cc2NC(=S)C3)cc1CCCN(C)C [Compound I-42, 9-chloro-2-({5-[3-(dimethylamino)propyl]-2,6-dimethylpyridin-3-yl}amino)-5,7-dihydro-6H-pyrimido[5,4-d][1]benzazepine-6-thione]",< 5 nM
12,"Cc1ncc(CCN2CCOCC2)cc1Nc1ncc2c(n1)-c1ccc(C(F)(F)F)cc1NC(=S)C2 [Compound I-43, 2-{[2-methyl-5-(2-morpholin-4-ylethyl)pyridin-3-yl]amino}-9-(trifluoromethyl)-5,7-dihydro-6H-pyrimido[5,4-d][1]benzazepine-6-thione]",< 5 nM
13,"Cc1nc(CC2CCN(C)CC2)ccc1Nc1ncc2c(n1)-c1ccc(Cl)cc1NC(=S)C2 [Compound I-44, 9-chloro-2-({2-methyl-6-[(1-methylpiperidin-4-yl)methyl]pyridin-3-yl}amino)-5,7-dihydro-6H-pyrimido[5,4-d][1]benzazepine-6-thione]",5 to 25 nM
14,"Cc1ncc(CCN2CCCC2)cc1Nc1ncc2c(n1)-c1ccc(Cl)cc1NC(=S)C2 [Compound I-45, 9-chloro-2-{[2-methyl-5-(2-pyrrolidin-1-ylethyl)pyridin-3-yl]amino}-5,7-dihydro-6H-pyrimido[5,4-d][1]benzazepine-6-thione]",< 5 nM
15,"Cc1ncc(N2CCN(C)CC2)cc1Nc1ncc2c(n1)-c1ccc(C(F)(F)F)cc1NC(=S)C2 [Compound I-46, 2-{[2-methyl-5-(4-methylpiperazin-1-yl)pyridin-3-yl]amino}-9-(trifluoromethyl)-5,7-dihydro-6H-pyrimido[5,4-d][1]benzazepine-6-thione]",< 5 nM
16,"S=C1Cc2cnc(Nc3ccc(N4CCCC4)nc3)nc2-c2ccc(Cl)cc2N1 [Compound I-47, 9-chloro-2-[(6-pyrrolidin-1-ylpyridin-3-yl)amino]-5,7-dihydro-6H-pyrimido[5,4-d][1]benzazepine-6-thione]",< 5 nM
17,"CCN1[C@H](C)CN(c2cnc(C)c(Nc3ncc4c(n3)-c3ccc(Cl)cc3NC(=S)C4)c2)C[C@@H]1C [Compound I-49, 9-chloro-2-({5-[(3R,5S)-4-ethyl-3,5-dimethylpiperazin-1-yl]-2-methylpyridin-3-yl}amino)-5,7-dihydro-6H-pyrimido[5,4-d][1]benzazepine-6-thione]",< 5 nM
18,"Cc1ncc(CCN(C)C)cc1Nc1ncc2c(n1)-c1ccc(C(F)(F)F)cc1NC(=S)C2 [Compound I-50, 2-({5-[2-(dimethylamino)ethyl]-2-methylpyridin-3-yl}amino)-9-(trifluoromethyl)-5,7-dihydro-6H-pyrimido[5,4-d][1]benzazepine-6-thione]",< 5 nM
19,"CN1CCN(CCc2cncc(Nc3ncc4c(n3)-c3ccc(Cl)cc3NC(=S)C4)c2)CC1 [Compound I-51, 9-chloro-2-({5-[2-(4-methylpiperazin-1-yl)ethyl]pyridin-3-yl}amino)-5,7-dihydro-6H-pyrimido[5,4-d][1]benzazepine-6-thione]",< 5 nM
20,"Cc1ncc(CCN2CCC(N(C)C)CC2)cc1Nc1ncc2c(n1)-c1ccc(C(F)(F)F)cc1NC(=S)C2 [Compound I-52, 2-[(5-{2-[4-(dimethylamino)piperidin-1-yl]ethyl}-2-methylpyridin-3-yl)amino]-9-(trifluoromethyl)-5,7-dihydro-6H-pyrimido[5,4-d][1]benzazepine-6-thione]",< 5 nM
21,"Cc1ncc(CCN2CCCCC2)cc1Nc1ncc2c(n1)-c1ccc(Cl)cc1NC(=S)C2 [Compound I-54, 9-chloro-2-{[2-methyl-5-(2-piperidin-1-ylethyl)pyridin-3-yl]amino}-5,7-dihydro-6H-pyrimido[5,4-d][1]benzazepine-6-thione]",< 5 nM
22,"Cc1ncc(CCCO)cc1Nc1ncc2c(n1)-c1ccc(C(F)(F)F)cc1NC(=S)C2 [Compound I-55, 2-{[5-(3-hydroxypropyl)-2-methylpyridin-3-yl]amino}-9-(trifluoromethyl)-5,7-dihydro-6H-pyrimido[5,4-d][1]benzazepine-6-thione]",< 5 nM
